# Measured values taken from patent US20210063413A1, “DENDRITIC CELL POTENCY ASSAY” (MEDIGENE IMMUNOTHERAPIES GMBH, priority 2017, published 2021).
# Tested on: dendritic cells
# Assay: IL-10/IL-12 secretion of stimulated dendritic cells (ELISA / ELISPOT) compared with the conventional Signal 3 Assay
# Format: cell-based, human
# Conditions: especially immature DCs (iDCs) and Jonuleit maturated DCs; FIG. 4 ELISA, FIG. 5 ELISPOT
# Protocol: Monocytes are isolated with adherent isolation followed by dendritic cell generation for 3 days using IL-4 and GMSCF. Afterwards dendritic cells were maturated with MDG cocktail and IL-4 and GMCSF for 24 h. In case of Jonuleit cocktails cells were incubated for 6 days using IL-4 and GMSCF. Then cells where incubated with the Jonuleit cocktail (and IL-4 and GMCSF) for 24 h. For all assays, frozen dendritic cells were used thawed the day before the assay and incubated in DC medium until assay start. Stimulation is carried out for 24 h in a 96 well plate. Therefore, 11,000 dendritic cells were seeded per well. 1.1 μl CD40L in 110 μl DC Medium (VLE RPMI 1640 with 1.5% human serum) 1 μg/ml LPS and R848 were added.
# Elisa assay was performed according to the protocols of the human IL-10, IL12p70 respectively, DuoSet ELISA-Kit (R&D Systems, Inc, Minneapolis, USA).
# The IL-10/IL-12 Elispot assay was carried out according to the protocol of the Human IL-10/IL-12 Double-Color ELISPOT kit of (C.T.L. Cellular technology Limited, Cleaveland, USA)
structure (smiles),measurement,value
"CCOCc1nc2c(N)nc3ccccc3c2n1CC(C)(C)O [R848, 4-amino-2-ethoxymethyl-α,α-dimethyl-1H-imidazol[4,5-c]quinoline-1-ethanol]",IL-10 secretion with R848 as costimulatory reagent added to CD40L,necessary as a costimulatory reagent for optimal IL-10 secretion
